Data from ChEMBL document CHEMBL4020815 (J Med Chem, 2017).
≈ marks a conversion by molar mass, not a printed value.

Experiments:
[1] = target: T1, Bifunctional purine biosynthesis protein ATIC (Homo sapiens, UniProt P31939); assay: Inhibition of AICARFT in human NCI-H460 cells assessed as increase in ZMP levels using low folate media after 16 hrs by LC-MS method; assay type: cell-based
[2] = target: T1, Bifunctional purine biosynthesis protein ATIC; assay: Inhibition of human full length N-terminal His-tagged AICARFT expressed in Escherichia coli BL21 (DE3) using ZMP/10-formyltetrahydrofolate as substrate assessed as decrease in IMP levels after 1 hr by mass spectrometric method
[3] = Dissociation constant, pKa of the compound; assay type: physicochemical
[4] = AUC in CD-1 mouse at 10 mg/kg, po by LC-MS/MS method; assay type: ADME, organism-based; conditions: in vivo
[5] = Equilibrium aqueous solubility of the compound at pH 2 after 20 hrs by HPLC method; assay type: physicochemical
[6] = Clearance in CD-1 mouse at 1 mg/kg, iv by LC-MS/MS method; assay type: ADME, organism-based; conditions: in vivo
[7] = Equilibrium aqueous solubility of the compound at pH 6 after 20 hrs by HPLC method; assay type: physicochemical
[8] = Lipophilicity, log D of the compound at pH 7; assay type: physicochemical; conditions: buffer
[9] = Equilibrium aqueous solubility of the compound at pH 7.5 after 20 hrs by HPLC method; assay type: physicochemical
[10] = Oral bioavailability in CD-1 mouse at 10 mg/kg by LC-MS/MS method; assay type: ADME, organism-based; conditions: in vivo
[11] = Permeability across apical to basolateral side in MDCK cells at 20 uM; assay type: ADME, cell-based, Canis lupus familiaris; conditions: dog
Mus musculus [12] = assay: Unbound volume of distribution at steady state in CD-1 mouse at 5 mg/kg, iv by LC-MS/MS method; assay type: ADME, organism-based; conditions: in vivo
[13] = Oral bioavailability in CD-1 mouse at 5 mg/kg by LC-MS/MS method; assay type: ADME, organism-based; conditions: in vivo
Mus musculus [14] = assay: In vivo inhibition of AICARFT in tumor of low folate diet fed nude mouse xenografted with human NCI-H460 cells assessed as increase in intratumoral ZMP levels at 0.3 to 30 mg/kg after 4 hrs relative to vehicle-treated control; assay type: functional
Mus musculus [15] = assay: In vivo inhibition of AICARFT in tumor of low folate diet fed nude mouse xenografted with human NCI-H460 cells assessed as increase in circulating AICAr levels at 0.3 to 30 mg/kg after 4 hrs relative to vehicle-treated control; assay type: functional
Mus musculus [16] = assay: Unbound Cmax in CD-1 mouse at 5 mg/kg, po by LC-MS/MS method; assay type: ADME, organism-based; conditions: in vivo
[17] = Half life in CD-1 mouse at 5 mg/kg, po by LC-MS/MS method; assay type: ADME, organism-based; conditions: in vivo
Mus musculus [18] = assay: Unbound clearance in CD-1 mouse at 5 mg/kg, iv by LC-MS/MS method; assay type: ADME, organism-based; conditions: in vivo
Mus musculus [19] = assay: Unbound AUC in CD-1 mouse at 5 mg/kg, po by LC-MS/MS method; assay type: ADME, organism-based; conditions: in vivo
[20] = Plasma concentration in CD-1 mouse at 10 mg/kg, po after 1 hr by LC-MS/MS method; assay type: ADME, organism-based
[21] = Fraction unbound in CD-1 mouse plasma; assay type: ADME, cell-free
[22] = target: T1, Bifunctional purine biosynthesis protein ATIC; assay: Inhibition of human AICARFT
[23] = Antitumor activity against human MDA-MB-231met2 cells xenografted in athymic nude mouse assessed as tumor volume at 5 mg/kg, iv qd administered for 5 days measured after 9 days relative to control; assay type: functional
Mus musculus [24] = assay: Toxicity in athymic nude mouse xenografted with human MDA-MB-231met2 cells assessed as body weight loss at 5 mg/kg, iv qd administered for 5 days; assay type: organism-based; conditions: in vivo, 120 h
Mus musculus [25] = assay: Toxicity in athymic nude mouse xenografted with human MDA-MB-231met2 cells assessed as mortality at 5 mg/kg, iv qd administered for 5 days; assay type: organism-based; conditions: in vivo, 120 h

T1 sequence (P31939 whole entry): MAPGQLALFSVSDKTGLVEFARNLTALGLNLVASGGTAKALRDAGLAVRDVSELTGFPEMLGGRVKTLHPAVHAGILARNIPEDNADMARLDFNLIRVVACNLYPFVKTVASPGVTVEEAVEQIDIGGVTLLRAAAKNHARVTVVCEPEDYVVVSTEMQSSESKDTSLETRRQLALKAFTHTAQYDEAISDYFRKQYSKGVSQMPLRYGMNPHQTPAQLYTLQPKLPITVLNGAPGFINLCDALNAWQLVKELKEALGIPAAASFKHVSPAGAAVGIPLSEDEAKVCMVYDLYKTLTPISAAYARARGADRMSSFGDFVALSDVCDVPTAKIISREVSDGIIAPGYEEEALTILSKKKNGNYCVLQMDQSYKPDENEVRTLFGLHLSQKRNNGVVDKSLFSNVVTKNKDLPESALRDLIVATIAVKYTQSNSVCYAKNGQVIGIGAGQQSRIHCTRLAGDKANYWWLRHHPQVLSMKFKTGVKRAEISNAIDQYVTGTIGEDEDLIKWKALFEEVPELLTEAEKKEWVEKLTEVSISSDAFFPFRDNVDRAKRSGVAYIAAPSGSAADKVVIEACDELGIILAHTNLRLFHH

Structure (SMILES) | EC50 [1] [nM] | IC50 [2] [nM] | permeability [11] [%] | concentration at 1 h [20] [µM] | fraction unbound [21] | also measured
O=c1[nH]ccc2cc(F)c(NS(=O)(=O)c3ccc(N4C[C@@H](O)[C@@H](F)C4)s3)cc12 (stereo in doubt) | 7.9 | 7.8 | 0.18 | 9.1 | 0.05 | Vduss (Mus musculus [12]): 9 L/kg; bioavailability [13]: 33%; fold change (FC) (Mus musculus [14]): >100; fold change (FC) (Mus musculus [15]): 80; fCmax (Mus musculus [16]): 232 nM; half-life [17]: 2.8 h; CL free (Mus musculus [18]): 44 mL/min/kg; fAUC (Mus musculus [19]): 1.52 µM·h
CCC1(C)CC(c2ccc(S(=O)(=O)Nc3cc4c(=O)[nH]ccc4cc3F)s2)=CNC1=O (stereo not given) | 4 | < 5 | – | 10.5 | < 0.03 | –
O=c1[nH]ccc2cc(F)c(NS(=O)(=O)c3ccc(N4CC[C@H](O)C4)s3)cc12 | – | – | 0.29 | 4.7 | 0.05 | –
O=c1[nH]ccc2cc(F)c(NS(=O)(=O)c3ccc(N4CCC(O)CC4)s3)cc12 | 21 | 13 | 0.25 | 4 | 0.05 | –
O=c1[nH]ccc2cc(F)c(NS(=O)(=O)c3ccc(N4C[C@H](O)C(F)(F)C4)s3)cc12 | 31 | 13 | 0.34 | 19.3 | 0.02 | –
O=c1[nH]ccc2cc(F)c(NS(=O)(=O)c3ccc(N4C[C@@H](F)[C@@H](O)C4)s3)cc12 (stereo in doubt) | 17 | 20 | 0.17 | 12 | 0.05 | –
O=c1[nH]ccc2cc(F)c(NS(=O)(=O)c3ccc(N4CCC[C@H](O)C4)s3)cc12 | 18 | 18 | 0.17 | 6.7 | 0.03 | –
O=c1[nH]ccc2cc(F)c(NS(=O)(=O)c3ccc(N4CCC[C@@H](O)C4)s3)cc12 | 68 | 26 | 0.17 | 1.7 | 0.03 | –
O=c1[nH]ccc2cc(F)c(NS(=O)(=O)c3ccc(N4C[C@@H](O)C(F)(F)C4)s3)cc12 | 27 | 12 | 0.28 | 33 | 0.03 | Vduss (Mus musculus [12]): 15 L/kg; bioavailability [13]: 55%; fold change (FC) (Mus musculus [14]): >100; fold change (FC) (Mus musculus [15]): 80; fCmax (Mus musculus [16]): 293 nM; half-life [17]: 3.2 h; CL free (Mus musculus [18]): 50 mL/min/kg; fAUC (Mus musculus [19]): 2.11 µM·h
CN(Cc1cnc2nc(N)nc(N)c2n1)c1ccc(C(=O)N[C@@H](CCC(=O)O)C(=O)O)cc1 [METHOTREXATE] | – | – | – | – | – | Activity [23]: 88%; Activity (Mus musculus [24]): Non-Toxic; Activity (Mus musculus [25]): Non-Toxic

Now from value to compound, other results behind:

EC50 [1] [nM] | IC50 [2] [nM] | permeability [11] [%] | concentration at 1 h [20] [µM] | fraction unbound [21] | Structure (SMILES) | also measured
567 | 608 | 0.55 | – | – | N#Cc1ccc(S(=O)(=O)Nc2ccc3cc[nH]c(=O)c3c2)cc1 | pKa [3]: 6.93; AUC [4]: 16100 ng·h/mL; solubility thermodynamic at 20 h [5]: 30 µg/mL (≈ 92.2 µM); clearance [6]: 4.47 mL/min/kg; solubility thermodynamic at 20 h [7]: 40 µg/mL (≈ 123 µM); logD [8]: 1.7; solubility thermodynamic at 20 h [9]: 160 µg/mL (≈ 492 µM); bioavailability [10]: 43%
62 | < 5 | 0.09 | 1.7 | 0.05 | O=c1ccc(-c2ccc(S(=O)(=O)Nc3cc4c(=O)[nH]ccc4cc3F)s2)c[nH]1 | –
10 | < 5 | 0.09 | 30.6 | < 0.02 | CC1(C)CC(c2ccc(S(=O)(=O)Nc3cc4c(=O)[nH]ccc4cc3F)s2)=CNC1=O | Vduss (Mus musculus [12]): 9 L/kg; bioavailability [13]: 23%; fCmax (Mus musculus [16]): 187 nM; half-life [17]: 5.2 h; CL free (Mus musculus [18]): 19 mL/min/kg; fAUC (Mus musculus [19]): 2.159 µM·h
1810 | 723 | 0.35 | – | – | N#Cc1ccc(S(=O)(=O)Nc2cc3c(=O)[nH]ccc3cc2F)cc1 | pKa [3]: 5.97; AUC [4]: 55800 ng·h/mL; solubility thermodynamic at 20 h [5]: 10 µg/mL (≈ 29.1 µM); clearance [6]: 2.34 mL/min/kg; solubility thermodynamic at 20 h [7]: 20 µg/mL (≈ 58.3 µM); logD [8]: 0.6; solubility thermodynamic at 20 h [9]: 230 µg/mL (≈ 670 µM); bioavailability [10]: 79%
– | 90000 | – | – | – | N#Cc1ccc(S(=O)(=O)Nc2cccc(C(N)=O)c2)cc1 | –
– | 18100 | – | – | – | N#Cc1ccc(S(=O)(=O)Nc2ccc3nc(N)[nH]c(=O)c3c2)cc1 | –
– | 1000 to 5000 | – | – | – | Nc1nc2ccc(NS(=O)(=O)c3ccc(C(=O)N[C@@H](CCC(=O)O)C(=O)O)cc3)cc2c(=O)[nH]1 | Ki [22]: 6 nM
– | 34800 | – | – | – | O=C1NC(=O)c2cc(NS(=O)(=O)c3ccc(Cl)cc3)ccc21 | –
– | > 100000 | – | – | – | N#Cc1ccc(S(=O)(=O)Nc2ccccc2)cc1 | –
